Common to all, as to assay type: cell-based
Set-up in all cases: GPCRome screening signal at PTGIR / GPCRome screening signal at PTH1R / GPCRome screening signal at PTH2R / GPCRome screening signal at QRFP / GPCRome screening signal at RXFP2 / GPCRome screening signal at RXFP3 / GPCRome screening signal at RXFP4 / GPCRome screening signal at S1PR2 / GPCRome screening signal at S1PR3 / GPCRome screening signal at S1PR4 / GPCRome screening signal at S1PR5 / GPCRome screening signal at SCTR / GPCRome screening signal at SSTR2 / GPCRome screening signal at SSSTR / GPCRome screening signal at SSTR4 / GPCRome screening signal at SSTR5 / GPCRome screening signal at SUCNR1 / GPCRome screening signal at TA1 / GPCRome screening signal at TAAR2 / GPCRome screening signal at TAAR5 / GPCRome screening signal at TAAR6 / GPCRome screening signal at TAAR8 / GPCRome screening signal at TACR1 / GPCRome screening signal at TACR2 / GPCRome screening signal at TACR3 / GPCRome screening signal at TBXA2R / GPCRome screening signal at TSHR / GPCRome screening signal at UTS2R / GPCRome screening signal at VIPR2 / GPCRome screening signal at GPR68 no V2 Tail / GPCRome screening signal at GRM2 / GPCRome screening signal at GRM3: reference not given here

Experiment [1] has as its target T1, 320 non-olfactory GPCRs (Homo sapiens, UniProt P16473).
T1 construct: expressed in transfected cells; host or cells: HTLA cells
The following applies: receptor TSHR.

Experiment [2] concerns the target T2, 320 non-olfactory GPCRs (Homo sapiens, UniProt Q9P1P5).
T2 construct: expressed in transfected cells; host or cells: HTLA cells
The following applies: receptor TAAR2.

Experiment [3] concerns the target T3, 320 non-olfactory GPCRs (Homo sapiens, UniProt Q8TDU9).
T3 construct: expressed in transfected cells; host or cells: HTLA cells
To be noted: receptor RXFP4.

The target of experiment [4] is 320 non-olfactory GPCRs (Homo sapiens, UniProt P35346). To be noted: receptor SSTR5.
Sequence of 320 non-olfactory GPCRs (Homo sapiens, UniProt P35346) (P35346 whole entry): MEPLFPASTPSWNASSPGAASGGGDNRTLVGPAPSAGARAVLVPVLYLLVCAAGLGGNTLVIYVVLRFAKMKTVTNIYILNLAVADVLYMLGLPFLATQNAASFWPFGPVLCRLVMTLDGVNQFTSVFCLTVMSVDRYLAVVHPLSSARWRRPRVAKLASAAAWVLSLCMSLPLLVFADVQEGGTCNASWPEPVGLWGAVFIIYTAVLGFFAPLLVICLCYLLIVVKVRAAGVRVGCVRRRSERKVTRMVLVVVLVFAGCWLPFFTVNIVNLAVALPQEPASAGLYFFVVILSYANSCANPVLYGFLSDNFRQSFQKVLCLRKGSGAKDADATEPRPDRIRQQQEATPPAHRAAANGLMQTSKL
[5] abbreviates: Fig_5f, single replicate values.

Values joined by “and” are separate entries in the source; they are usually repeats but may differ in a detail not shown here. Identical values can stand only once.
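For GPCRome agonism screen response in this document: fold over basal response of each receptor without drug.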

T2 sequence (Q9P1P5 whole entry): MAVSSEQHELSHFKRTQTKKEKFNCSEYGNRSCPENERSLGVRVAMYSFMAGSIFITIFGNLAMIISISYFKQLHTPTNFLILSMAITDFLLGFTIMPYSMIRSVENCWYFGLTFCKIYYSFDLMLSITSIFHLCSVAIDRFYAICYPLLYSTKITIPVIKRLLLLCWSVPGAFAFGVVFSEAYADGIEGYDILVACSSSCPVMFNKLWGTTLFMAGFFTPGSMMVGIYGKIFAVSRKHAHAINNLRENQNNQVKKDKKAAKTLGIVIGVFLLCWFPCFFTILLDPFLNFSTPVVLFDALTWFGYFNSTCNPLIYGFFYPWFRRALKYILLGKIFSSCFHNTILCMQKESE
T3 sequence (Q8TDU9 whole entry): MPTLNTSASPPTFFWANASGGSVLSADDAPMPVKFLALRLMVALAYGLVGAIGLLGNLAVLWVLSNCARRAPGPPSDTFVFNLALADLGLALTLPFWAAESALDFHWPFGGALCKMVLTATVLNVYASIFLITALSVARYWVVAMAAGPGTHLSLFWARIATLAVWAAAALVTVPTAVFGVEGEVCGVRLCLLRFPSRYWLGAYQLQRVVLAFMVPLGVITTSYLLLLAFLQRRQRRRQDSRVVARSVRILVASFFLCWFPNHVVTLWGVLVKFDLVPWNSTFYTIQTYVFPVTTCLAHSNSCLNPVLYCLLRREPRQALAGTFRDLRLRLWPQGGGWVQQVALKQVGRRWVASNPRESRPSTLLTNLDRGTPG
T1 sequence (P16473 21-764): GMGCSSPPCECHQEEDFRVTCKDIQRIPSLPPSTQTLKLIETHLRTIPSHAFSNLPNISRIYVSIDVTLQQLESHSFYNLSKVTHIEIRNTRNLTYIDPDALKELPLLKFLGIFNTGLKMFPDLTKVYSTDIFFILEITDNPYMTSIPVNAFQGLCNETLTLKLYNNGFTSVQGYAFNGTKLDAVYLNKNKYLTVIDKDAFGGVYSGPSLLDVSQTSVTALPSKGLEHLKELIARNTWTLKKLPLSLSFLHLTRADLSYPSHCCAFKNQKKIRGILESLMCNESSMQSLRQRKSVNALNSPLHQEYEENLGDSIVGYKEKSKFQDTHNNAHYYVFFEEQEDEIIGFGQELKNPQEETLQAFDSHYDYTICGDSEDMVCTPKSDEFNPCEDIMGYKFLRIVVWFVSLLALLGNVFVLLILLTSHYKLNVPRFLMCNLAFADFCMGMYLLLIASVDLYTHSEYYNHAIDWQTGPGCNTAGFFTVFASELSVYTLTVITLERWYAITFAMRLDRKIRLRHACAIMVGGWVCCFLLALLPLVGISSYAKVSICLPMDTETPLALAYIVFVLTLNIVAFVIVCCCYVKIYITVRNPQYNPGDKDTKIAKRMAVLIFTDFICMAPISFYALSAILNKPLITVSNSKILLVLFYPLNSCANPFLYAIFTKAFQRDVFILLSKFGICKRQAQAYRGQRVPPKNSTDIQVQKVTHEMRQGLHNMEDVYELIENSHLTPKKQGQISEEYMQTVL

For `CCOc1cccc2cc(C(C)NCC3(O)CCCCC3)oc12` (centres unmarked) [O4LE6], the “GPCRome agonism screen response” value at 320 non-olfactory GPCRs [1] (replicate values, Fig_4g) was 0.633 and 1.167 and 0.8187 and 0.6635; on 320 non-olfactory GPCRs [2] (replicate values, Fig_4g) it was 2.656 and 0.9121 and 0.6733 and 0.6661; at 320 non-olfactory GPCRs [3] (replicate values, Fig_4g), 0.5888 and 1.446 and 0.8124 and 1.384; at 320 non-olfactory GPCRs [4] (replicate values, Fig_4g) it was 1.067 and 0.3371 and 0.8014 and 0.9752.
Turning to `CCOc1ccccc1CCC(C)NCC1(O)CCCCC1.Cl` (racemic) [Fig_5f], the “GPCRome screening signal at TSHR” value at 320 non-olfactory GPCRs [1] (setting [5]) was 0.6627 and 1.386 and 0.8068 and 1.0471. In addition, at 320 non-olfactory GPCRs [2] (setting [5]), the “GPCRome screening signal at TAAR2” value was 1.515 and 0.6858 and 1.3165 and 0.7903. On 320 non-olfactory GPCRs [3] (setting [5]), the “GPCRome screening signal at RXFP4” value was 0.4319 and 1.123 and 0.5997 and 0.5278. Further, the “GPCRome screening signal at SSTR5” value at 320 non-olfactory GPCRs [4] (setting [5]) was 1.884 and 1.207 and 1.033 and 0.572.

These data come from paper PMC7044277 (Nature Communications, 2020).
